{
  "source": "patent US11123335B2",
  "about": "“Method for preventing lung diseases in smokers and non-smokers using antihypertensive drug” (SEOUL NATIONAL UNIVERSITY R & DB FOUNDATION, priority 2015, dated 2021)",
  "key": {"lung epithelial cells": {"system": "lung epithelial cells", "assay": "Transformation of lung epithelial cells by stress hormones", "format": "cell-based, human", "conditions": "treatment with the stress hormone alone", "description": "Cells (2-3×10^3 cells) were seeded into 96-well plates, treated with a test drug diluted with a medium, and then incubated for 3 days. After incubation, the cells were treated with an MTT solution to have a final concentration of 200-500 μg/ml and incubated for 2 to 4 hours. After discarding the medium, produced formazan was dissolved in DMSO, and then the absorbance at 570 nm was measured. Alternatively, cells were seeded into 12- or 24-well plates, collected after a predetermined time after treatment with a test drug, and then counted using a hemocytometer. 100 to 300 cells were seeded into 6- or 12-well plates and then treated with NNK or NNK and a test drug for 2 to 3 weeks. After 2 to 3 weeks, Colony formation was observed and the colonies were counted after stained staining with crystal violet. Before the experiment, low-melting agar (final concentration of agar: 1%) was diluted with a medium, and then 1 ml of the resulting solution was added and solidified in each 24-well plate, resulting in bottom agar. 2,000 to 5,000 cells were mixed with the low melting agar (final concentration of agar: 0.35-0.4%), 500 μl of the resulting mixture was added onto each bottom agar. After solidification of the agar, the cells were treated with NNK or a test drug, which was diluted with a medium. After 2 to 4 weeks after treatment, colonies were stained with an MTT solution, observed, and then counted. Lung epithelial cells at 90 to 95% confluency were treated with a carcinogen diluted with a growth factor-free medium, or a carcinogen and a test drug. After 2 to 3 weeks, foci formation was observed."}, "mice": {"system": "mice", "assay": "NE (stress hormone) lung carcinogenesis model with urethane", "format": "in vivo, mouse", "conditions": "continuous NE exposure by micro-osmotic pump, 12 weeks, urethane 1 g/kg", "description": "To identify the carcinogenesis promotion by a stress hormone NE, NE (50.1 mM) or vehicle PBS was injected into micro-osmotic pumps (Alzet), and then the pumps were implanted into the backs of mice. Six weeks later, the existing pumps were removed, NE or PBS-injected new pumps were implanted into the mice, and then the mice were continuously exposed (daily exposure at a dose of 1 μmol per 100 g mouse) to NE for a total of 12 weeks. To stimulate tumorigenesis, three days after the pump implantation, urethane was administered at a dose of 1 g/kg.\nFor non-invasive observation of tumors before autopsy, MMPSense 680 probes were injected, and images were obtained using IVIS Spectrum microCT (PerkinElmer). After autopsy of the mice, lungs were extracted, and produced tumors were counted and embedded in paraffin to form paraffin blocks. Four or more tissue sections were prepared at regular intervals and stained by H&E staining, and then numbers and sizes of the tumors were measured to calculate volumes of the tumors. The tumor volume was calculated according to (minor axis)^2×major axis×0.5."}, "IGF2 [1]": {"system": "IGF2", "assay": "NE-mediated IGF2 secretion in lung epithelial cells", "format": "cell-based, human", "description": "ELISA for IGF1, IGF2 and NE were performed using commercially available ELISA kits (R&D Systems, DSL or Abnova) according to the manufacturer's instruction."}, "IGF-1R [2]": {"system": "IGF-1R", "assay": "NE-mediated IGF-1R activation in lung epithelial cells", "format": "cell-based, human", "description": "(§1) Cells were washed twice with ice-cold PBS, and then lysed with a modified RIPA buffer [50 mM Tris-HCl (pH 7.4), 150 mM NaCl, 1 mM EDTA, 0.25% sodium deoxycholate, 1% Triton X-100, a protease inhibitor cocktail, 100 mM NaF, 1 mM Na3VO4]. Lysates were centrifuged at 13,000 rpm for 15 to 20 minutes to harvest supernatants, and then the collected proteins were quantified using the BCA method. Equivalent amounts of the proteins were subjected to electrophoresis using 8-15% SDS-PAGE, and then transferred to a PVDF membrane. The membrane was washed with TBST (0.01% Tween-20-containing Tris-buffered saline), and blocked in a blocking buffer (diluted in TBST to contain 5% skim milk) at room temperature for 1 hour. The membrane was incubated with primary antibodies diluted in 3% BSA-containing TBST at 4° C. for 12 hours, and washed with TBST for over 1 hour. The membrane was incubated with secondary antibodies diluted in TBST containing 3% skim milk at room temperature for 1 to 2 hours, and washed with TBST for over 1 hour. The membrane was reacted in an ECL solution, and band visualization was carried out by exposure to an X-ray film."}, "IGF2 [3]": {"system": "IGF2", "assay": "IGF1 and IGF2 generation in lung epithelial cells (RT-PCR)", "format": "cell-based, human", "conditions": "NNK 1 or 10 μM", "description": "RNA was isolated from lung epithelial cells by the following method. By adding TRIzol Reagent, the cells were homogenized, treated with chloroform and then centrifuged at 13,000 rpm for 20 minutes. After collection of supernatants, equivalent amounts of isopropanol were added, and then the resulting mixture was centrifuged at 13,000 rpm for 20 minutes to precipitate RNA. The precipitated RNA was washed with 75% ethanol, dried and then dissolved in nuclease-free water. The absorbance at 260 nm was measured, and then the RNA was quantified. RNA having a ratio of A260/A280 nm of 1.8 to 2.0 was used in the experiments. All of the experiments were carried out under RNase-free conditions.\ncDNA was synthesized using the PrimeScript™ 1st strand cDNA Synthesis Kit by reacting 2 μg of total RNA with Oligo dT primer (50 μM), a dNTP mixture, and RNase-free dH2O at 65° C. for 5 minutes, reacting a Template RNA primer mixture with 5× PrimeScript Buffer, an RNase inhibitor, PrimeScript RTase, and RNase-free dH2O at 42° C. for 1 hour, and performing heating at 95° C. for 5 minutes to stop the reaction.\nAfter a reaction solution was adjusted to a final volume of 20 μl by adding 2 μl cDNA, 4 μM primer sets, 10 μl EconoTaq® polymerase, and distilled water, polymerase chain reaction (PCR) was carried out using a PCR instrument. […]"}, "IGF-1R [4]": {"system": "IGF-1R", "assay": "NNK-induced IGF-1R activation in lung epithelial / lung cancer cells (Western blot)", "format": "cell-based, human", "description": "as §1"}, "IGF2 [5]": {"system": "IGF2", "assay": "IGF2 secretion in GFP-IGF2-overexpressing BEAS-2B cells", "format": "cell-based, human", "conditions": "GFP-IGF2-overexpressing BEAS-2B, NNK treatment"}, "intracellular Ca^2+": {"system": "intracellular Ca^2+", "assay": "Intracellular Ca2+ production (Fluo-4 AM)", "format": "cell-based, human", "conditions": "NNK treatment", "description": "Lung epithelial cells were placed on coverslips, treated with an antihypertensive drug or a Ca^2+ chelator, treated with Ca^2+ indicator Fluo-4 AM at 37° C. for 15 minutes, and then treated with NE for 5 minutes. The cells were washed with PBS three times. The slides were mounted with a mounting medium, and images were captured using a Nuance multispectral imaging system (PerkinElmer).\nFor real-time monitoring of a Ca^2+ change in cells by NNK, the cells were seeded into 96-well cell carrier microplates (PerkinElmer), treated with an antihypertensive drug, treated with Fluo-4 AM at 37° C. for 15 minutes, and then treated with NNK. Fluorescence changes were monitored using an Operetta high content screening system, and result analysis was performed using Harmony software (PerkinElmer)."}, "IGF-1R [6]": {"system": "IGF-1R", "assay": "NNK-induced IGF-1R phosphorylation in IGF-1R or IR-overexpressing fibroblasts (immunoprecipitation)", "format": "cell-based", "conditions": "NNK 10 μM, time-dependent", "description": "Proteins isolated from cells were incubated with an antibody and protein A/G agarose to isolate a protein binding to the corresponding antibody. The presence of other proteins capable of interacting with a specific protein was determined by Western blot analysis.\nas §1"}, "IGF-1R [7]": {"system": "IGF-1R", "assay": "IGF-1R activation in lung tissue of NNK-treated mice", "format": "in vivo, mouse", "conditions": "A/J mice, NNK 3 μmol", "description": "as §1"}, "angiotensinogen (AGT)": {"system": "angiotensinogen (AGT)", "assay": "AGT expression or secretion in lung epithelial cells", "format": "cell-based, human", "description": "as §1"}, "FVB mouse": {"system": "FVB mouse", "assay": "Emphysema-induced mouse model (NNK/B[a]P)", "format": "in vivo", "conditions": "FVB mice, amlodipine 0.8 mg/kg oral 6 times a week, 5 months", "description": "Cells were plated onto coverslips, pretreated with a drug and then treated with NNK or NE. OCT blocks were sliced to have a thickness of 4 μm and then placed onto silane-coated slides. Cells or tissue was washed with PBS, and fixed with 4% paraformaldehyde at room temperature for 30 minutes. Afterward, the cells were permeabilized with 0.1% Triton X-100, and blocked in a blocking solution. After treatment with primary antibodies at 4° C. for over 12 hours, the cells were washed with PBS several times, and then treated with fluorescence-binding secondary antibodies. Subsequently, after washing with PBS several times, the slides were mounted with a DAPI-containing mounting solution, and images were captured using a confocal microscope.\nParaffin blocks were sliced to have a thickness of 4 μm, placed onto silane-coated slides, and then dried. […]\nAs a method for detecting the activation degree of a protease, a matrix metalloproteinase (MMP), known as the main factor causing COPD in lung tissue, a proper amount of a reaction buffer containing fluorescein isothiocyanate (FITC)-coupled DQ gelatin was added to a slide, and reacted at 37° C. in a dark room for 12 hours. The activated MMP decomposed the DQ gelatin, resulting in fluorescence from FITC which had been inhibited, and thus the fluorescence intensity of FITC was directly proportional to MMP activity. […]"}, "IGF-1R [8]": {"system": "IGF-1R", "assay": "Angiotensin-induced activation of IGF-1R signaling in BEAS-2B", "format": "cell-based, human", "conditions": "angiotensin stimulation", "description": "as §1"}, "[9]": {"conditions": "NE-treated lung epithelial cells"}},
  "data": [
    {"compound": "NC[C@H](O)c1ccc(O)c(O)c1", "note": "[NE, norepinephrine]", "values": [
      {"measurement": "transformation of lung epithelial cells (viability, colony formation, foci formation)", "setting": "lung epithelial cells", "result": "significantly enhanced"},
      {"measurement": "urethane-initiated lung carcinogenesis", "setting": "mice", "result": "significantly increased"},
      {"measurement": "IGF2 secretion", "setting": "IGF2 [1]; lung epithelial cells treated with NE", "result": "increased"},
      {"measurement": "IGF-1R phosphorylation", "setting": "IGF-1R [2]; BEAS-2B, HBE/p53i, NHBE, HB56B, NE time- or concentration-dependent", "result": "increased"}
    ]},
    {"compound": "CN(CCCC(=O)c1cccnc1)N=O", "note": "[NNK, 4-(methylnitrosamino)-1-(3-pyridyl)-1-butanone]", "values": [
      {"measurement": "IGF2 generation", "setting": "IGF2 [3]", "result": "increased"},
      {"measurement": "activation of IGF-1R and its downstream signaling mediators Akt, mTOR, ERK", "setting": "IGF-1R [4]; NHBE, SAEC, HBE/p53i, HB56B, BEAS-2B, increasing NNK time or concentration", "result": "increased"},
      {"measurement": "IGF-1R activation in lung cancer cells", "setting": "IGF-1R [4]; various lung cancer cells with different genotypes, NNK 10 μM", "result": "activated"},
      {"measurement": "IGF2 secretion", "setting": "IGF2 [5]", "result": "increased"},
      {"measurement": "intracellular Ca^2+", "setting": "intracellular Ca^2+", "result": "increased"},
      {"measurement": "specificity of increase in IGF-1R phosphorylation (IGF-1R vs IR)", "setting": "IGF-1R [6]", "result": "specifically shown for IGF-1R, not for IR"},
      {"measurement": "activation of IGF-1R and its downstream signaling IRS in lung tissue", "setting": "IGF-1R [7]", "result": "increased"},
      {"measurement": "AGT promoter activation", "setting": "angiotensinogen (AGT); NNK treatment", "result": "activated"},
      {"measurement": "AGT expression and secretion", "setting": "angiotensinogen (AGT); increase in NNK treatment time and concentration", "result": "increased"},
      {"measurement": "AGT expression", "setting": "angiotensinogen (AGT); lung epithelial cells treated with NNK for 120 days", "result": "increased"}
    ]},
    {"compound": "amlodipine", "values": [
      {"measurement": "NE-mediated IGF2 secretion", "setting": "IGF2 [1]; [9]", "result": "inhibited"},
      {"measurement": "NE-mediated IGF-1R activation", "setting": "IGF-1R [2]; [9]", "result": "inhibited"},
      {"measurement": "lung tissue collapse (morphology, H&E)", "setting": "FVB mouse", "result": "inhibited"}
    ]},
    {"compound": "angiotensin (DRVYIHPF; Angiotensin-2; UniProt P01019 25-32, looked up) [angiotensin used to stimulate BEAS-2B lung epithelial cells]", "values": [
      {"measurement": "activation of IGF-1R and downstream signaling mediators Akt and ERK", "setting": "IGF-1R [8]", "result": "concentration- and time-dependently activated"}
    ]}
  ]
}
